Test [1] relates to MCF-7 (breast adenocarcinoma). The experiment in a line: MTT anti-proliferative assay, MCF-7. To be noted: Homo sapiens, MCF7, 48 h. The format is cell-based. On the procedure:
(§1) To determine the selectivity of the synthesized compounds 7–16 toward various cancer cells and normal human cells, the anti-proliferative activity against K562 (chronic myelogenous leukemia), HL-60 (promyelocytic leukemia), MCF-7 (breast adenocarcinoma), HeLa (cervix carcinoma), HepG2 (human liver cancer), A549 (lung carcinoma), OKP-GS (renal cell carcinoma), and normal cells RPMI 1788 (B lymphocyte, the human cell line) was investigated.
(§2) Each in vitro experiment was performed at least in triplicate and the standard deviation of absorbance was less than 10% of the mean. For the in vitro assays, a stock solution (1% DMSO in the appropriate buffer with the tested compound diluted under sonication) was prepared from which several dilutions were made with the appropriate buffer.
(§3) Human cell lines were obtained from the Institute of Cytology, Russian Academy of Sciences. The cell lines studied were maintained in RPMI 1640 medium (AppliChem, Darmstadt, Germany) supplemented with 20% (HL-60, RPMI 1788) fetal calf serum (HyClone, Cramlington, UK), in DMEM (A 549) and Eagle’s MEM (AppliChem) (MCF7, HeLa) with 10% fetal calf serum (HyClone). Cells were cultivated at 37 °C in a humidified atmosphere of 5% CO2. Cellular sensitivities to synthesized compounds and standards were measured with the MTT assay. Cells were plated in triplicate in 96-well plates (10^5 cells/well for suspended cell cultures and 5 × 10^3 cells/well for monolayer cultures); on the same day (suspended cell cultures) or on the following day (monolayer cultures), compounds were added at the appropriate dilutions. Anti-proliferative activity was studied at concentrations 0.1–50.0 µM. The reference drugs were imatinib, sorafenib and nilotinib. Plates were incubated under standard conditions for 48 h. Thereafter, 10 μL MTT (Sigma) in phosphate-buffered saline (5 mg/mL) was added. The plates were incubated for an additional 4 h and 150 μL dimethylsulphoxide (DMSO) was added to dissolve the formazan crystals. The optical density was read on a HALO MPR-95 Microplate Reader (Dynamica Scientific Ltd., Melbourne, Victoria, Australia) at 570 nm. The antiproliferative effects were taken as degrees of inhibition of tumor cells (%). The average of three parallel measurements was calculated for each concentration of test compound. The degree of cell growth suppression was plotted as a function of the logarithm of the concentration. The half maximal inhibitory concentration (IC50) was determined graphically for active compounds.

Test [2] deals with HepG2 (human liver cancer). Put plainly: MTT anti-proliferative assay, HepG2. The format is cell-based. To be noted: 48 h. On the procedure:
as §1, §2, §3
(Tetrazolium assays rely on reduction of a dye to a coloured formazan, in cell work by metabolically active cells.)

Test [3] relates to RPMI 1788 (B lymphocyte, normal human lymphoblastoid cells). Put plainly: MTT assay on normal cells RPMI 1788. The format is cell-based. How it is done: as §1, §2
as §3, with “Anti-proliferative activity was studied at concentrations 0.1–50.0 µM.” left out

A further test deals with T1, PDGFRα (Homo sapiens, UniProt P16234).
T1 construct: purchased Promega
T1 sequence (P16234 24-1089): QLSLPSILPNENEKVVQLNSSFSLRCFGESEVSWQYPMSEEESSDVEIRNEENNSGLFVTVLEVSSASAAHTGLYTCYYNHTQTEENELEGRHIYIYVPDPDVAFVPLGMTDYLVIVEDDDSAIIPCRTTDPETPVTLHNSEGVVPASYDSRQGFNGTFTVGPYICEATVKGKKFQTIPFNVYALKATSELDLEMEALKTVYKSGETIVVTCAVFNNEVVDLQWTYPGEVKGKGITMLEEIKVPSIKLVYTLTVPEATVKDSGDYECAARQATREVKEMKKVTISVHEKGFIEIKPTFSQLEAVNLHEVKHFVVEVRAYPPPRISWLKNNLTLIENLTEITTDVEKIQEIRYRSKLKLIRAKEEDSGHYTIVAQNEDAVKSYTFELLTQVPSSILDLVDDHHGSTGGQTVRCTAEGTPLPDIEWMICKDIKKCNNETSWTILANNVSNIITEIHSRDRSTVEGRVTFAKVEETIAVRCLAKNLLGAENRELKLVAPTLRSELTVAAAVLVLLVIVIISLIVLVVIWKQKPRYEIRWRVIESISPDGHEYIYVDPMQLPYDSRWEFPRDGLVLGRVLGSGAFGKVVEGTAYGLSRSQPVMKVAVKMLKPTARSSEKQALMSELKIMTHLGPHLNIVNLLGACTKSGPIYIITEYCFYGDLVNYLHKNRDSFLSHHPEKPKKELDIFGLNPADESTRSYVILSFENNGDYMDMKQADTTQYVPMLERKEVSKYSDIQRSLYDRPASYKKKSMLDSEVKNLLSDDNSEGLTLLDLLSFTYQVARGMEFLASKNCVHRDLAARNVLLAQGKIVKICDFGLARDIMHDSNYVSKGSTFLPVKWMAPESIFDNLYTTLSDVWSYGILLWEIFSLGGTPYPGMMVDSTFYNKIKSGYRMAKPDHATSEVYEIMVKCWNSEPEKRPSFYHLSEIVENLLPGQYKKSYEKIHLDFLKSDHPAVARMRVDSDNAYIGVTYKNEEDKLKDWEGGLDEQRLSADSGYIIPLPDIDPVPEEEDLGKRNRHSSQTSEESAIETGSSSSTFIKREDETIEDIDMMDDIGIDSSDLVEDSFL
The experiment in a line: Kinase Selectivity Profiling System TK-1 / ADP-Glo, PDGFRα. The format is biochemical. The source says: Considering the presence of a purine ring in the compounds under study, type 1 binding to protein kinases could be expected. We investigated the kinase selectivity of targeted compounds 7–16 against eight receptor tyrosine kinases including EGFR, HER2 and HER4 (epidermal growth factor receptors), IGF1R (insulin-like growth factor 1 receptor), InsR (insulin receptor), KDR (vascular endothelial growth factor receptor 2—VEGFR-2), and PDGFRα and PDGFRβ (platelet-derived growth factor receptors). The assay was performed using the Kinase Selectivity Profiling System TK-1 (Promega, Madison, WI, USA) and ADP-Glo™ Kinase assay kit (Promega, Madison, WI, USA). Kinase activity was measured by quantifying the […] following a kinase reaction. Enzymatic activity inhibition percentage caused by studied compounds was evaluated at the single concentration of 1 μM.
The Abl1 inhibitory activity assay was performed using Abl1 Kinase Enzyme System (Promega, Madison, WI, USA) and ADP-Glo™ Kinase assay kit (Promega, Madison, WI, USA) according to the Technical Manual. The general procedure was as follows: kinase (2.5 ng/reaction) was incubated with substrate (1 μg), compound (0.5 and 10µM) and ATP (50 μM) in a commercial buffer solution with a reaction volume of 5 μL. In every experiment, no-enzyme and no-compound control reactions were included to represent background luminescence (0% activity) and uninhibited kinase activity (100% activity), respectively. The assay 384-well plate was incubated at room temperature for 1 h. Afterwards, 5μL of ADP-Glo reagent was added into each well to stop the reaction and consume the […] within 40 min. At the end, 10 μL of kinase detection reagent was added into the well and incubated for 30 min to produce a luminescence signal. Kinase activity assays were performed in triplicate at each inhibitor concentration. The luminescence was measured with the help of a Tecan Infinite M200 Plate Reader. The luminescence data were analyzed using the computer software, Magellan™. Percent kinase activity (KA) was calculated by subtracting the average no-enzyme control luminescence values from all kinase-containing reactions with or without compound, then converting these net luminescence values to percent activity based on the no-compound control reactions representing 100% kinase activity. Inhibition (I, %) was calculated as 100%-KA.
The single-dose screening of kinase selectivity was performed using Kinase Selectivity Profiling System TK-1 (Promega, Madison, WI, USA) and ADP-Glo™ Kinase assay kit (Promega, Madison, WI, USA) according to Technical Manual. Kinase Selectivity Profiling System TK-1 includes a set of kinases from the tyrosine kinase family (EGFR, HER2, HER4, IGF1R, InsR, KDR, PDGFα, PDGFβ) in 8-tube strip format. The general procedure was as follow: kinase working stock (2 µL/reaction) was incubated with ATP/substrate working stock (1 µL) and compound (1 µM) in a commercial buffer solution with a reaction volume of 5 μL. The reaction conditions and inhibition (%) calculation were the same as in Section 3.3.1. Kinase activity assays were performed in duplicate at each inhibitor.
For orientation: ADP-Glo turns the ADP formed in a reaction into a luminescent signal.

Molecules are shown by their SMILES.

The IC50 is the concentration that inhibits the measured activity by half. The low end stands for greater potency in that assay, the high end for weaker potency in that assay. Broadly, the inhibition is the percentage by which the read-out fell short of the control. As for `COc1nc(Cl)nc2c1ncn2Cc1ccc(C(=O)Nc2cc(-n3cnc(C)c3)cc(C(F)(F)F)c2)cc1` [Compound 14, 4-((2-Chloro-6-methoxy-9H-purin-9-yl)methyl)-N-(3-(4-methyl-1H-imidazol-1-yl)-5-(trifluoromethyl)phenyl)benzamide], the IC50 in test [1] was 67.4 ± 3.29 µM; in test [2], 28.5 ± 1.07 µM. In test [3], this molecule gave an inhibition at 100 µM of 99.1%. At 1 µM the inhibition on PDGFRα was 16%.

On to `O=C(Nc1cccc(C(F)(F)F)c1)c1ccc(Cn2cnc3c(Cl)nc(Cl)nc32)cc1` [Compound 7, 4-((2,6-Dichloro-9H-purin-9-yl)methyl)-N-(3-(trifluoromethyl)phenyl)benzamide], for which the half-maximal inhibitory concentration (IC50) was 12.3 ± 4.07 µM in test [1] and 11.3 ± 1.44 µM in test [2]. The inhibition at 100 µM in test [3] was 98.9%. For the same molecule, testing at 1 µM against PDGFRα gave an inhibition of 40%.

Regarding `Cc1cn(-c2cc(NC(=O)c3ccc(Cn4cnc5c(Cl)nc(Cl)nc54)cc3)cc(C(F)(F)F)c2)cn1` [Compound 10, 4-((2,6-Dichloro-9H-purin-9-yl)methyl)-N-(3-(4-methyl-1H-imidazol-1-yl)-5-(trifluoromethyl)-phenyl)benzamide], the IC50 in test [1] worked out at 8.1 ± 1.98 µM; in test [2], 12.7 ± 0.7 µM. 100 µM produced 98.5% inhibition in test [3]. Besides, the inhibition at 1 µM at PDGFRα turned out to be 37%.

Take `CNC(=O)c1cc(Oc2ccc(NC(=O)Nc3ccc(Cl)c(C(F)(F)F)c3)cc2)ccn1` [Sorafenib, sorafenib, reference compound]: the results for the concentration for half-maximal inhibition (IC50) in test [1] and in test [2] were 13.7 ± 3.08 µM and 8.4 ± 2.8 µM, respectively. In addition, the inhibition at 100 µM in test [3] was found to be 100%. On PDGFRα, the inhibition at 1 µM came to 98%.

`COc1nc(Cl)nc2c1ncn2Cc1ccc(C(=O)Nc2cccc(C(F)(F)F)c2)cc1` [Compound 13, 4-((2-Chloro-6-methoxy-9H-purin-9-yl)methyl)-N-(3-(trifluoromethyl)phenyl)benzamide]: the results for the IC50 in test [1] and in test [2] were 14.2 ± 2.71 µM and 9.16 ± 0.78 µM, respectively. Moreover, 100 µM produced 100% inhibition in test [3]. Further, on PDGFRα, the inhibition at 1 µM amounted to 10%.

Turning to `Nc1nc(Cl)nc2c1ncn2Cc1ccc(C(=O)Nc2cccc(C(F)(F)F)c2)cc1` [Compound 15, 4-((6-Amino-2-chloro-9H-purin-9-yl)methyl)-N-(3-(trifluoromethyl)phenyl)benzamide], the concentration for half-maximal inhibition (IC50) in test [1] was determined as 76.8 ± 3.25 µM; in test [2], 88.3 ± 2.54 µM. For the same molecule, in test [3], the inhibition at 100 µM came out at 93.5%. The molecule also came in with an inhibition at 1 µM at PDGFRα of 16%.

Values taken from publication PMC8657793, “Synthesis, In Vitro and In Silico Anticancer Activity of New 4-Methylbenzamide Derivatives Containing 2,6-Substituted Purines as Potential Protein Kinases Inhibitors” (International Journal of Molecular Sciences, 2021).
